Where two headings read alike, the source gives them in different places.
Assays:
[1] = test system: cytomegalovirus retinitis; conditions: intravenous, 7.5 to 15 mg per kilogram per day; patients with cytomegalovirus retinitis; cited from earlier work
[2] = test system: white blood cell (WBC) count; conditions: for WBC (per cm³): GM-CSF 0 µg/kg
From the text: A person was diagnosed as having AIDS and CMV retinitis. […]

Which “major adverse effect of DHPG therapy” value [1] does the source give for Nc1nc(O)c2ncn(COC(CO)CO)c2n1 [DHPG, 9-(1,3-dihydroxy-2-propoxymethyl) guanine] here?
The value was “dose related myelosuppression, especially neutropenia”.

What about the “WBC (per cm³)” value ([2]; Example 1, person, Day 0, % dose of DHPG changed to 50) of the same compound?
The value was 1000 per cm³.

And the “result of DHPG treatment (adverse effect)” value ([2]; Example 1, DHPG commenced at Day 0)?
Its value is “life threatening myelosuppression”.

What about the “WBC (per cm³)” value ([2]; Example 1, Day 29, % dose of DHPG changed to 50) of the same compound?
The value was 700 per cm³.

What about the “WBC (per cm³)” value ([2]; Example 1, Day 34, % dose of DHPG changed to 0) of the same compound?
The value was 300 per cm³.

And the “WBC (per cm³)” value ([2]; Example 1, Day 49 (DHPG at 0 % since Day 34), % dose of DHPG changed to 100)?
Its value is 1900 per cm³.

What about the “WBC (per cm³)” value ([2]; Example 1, Day 52, % dose of DHPG changed to 50) of the same compound?
The value was 700 per cm³.

— patent EP0370656A1, “Treatment of myelosuppression associated with acquired immune deficiency” (SCHERING CORPORATION, priority 1988, dated 1990)
